Laboratory results taken from US9505729B2, “Isoxazole analogs as mediators of transcriptional induction of E-cadherin” (Vanderbilt University, priority 2014, dated 2016).

These compounds were tested on E-cadherin expression in SW620 cells (assay: In-cell Western (ICW) cell-based functional assay of E-cadherin expression in SW620 cells). Conditions: Homo sapiens, SW-620; change in expression level of E-cadherin in response to 10 μM compound, SW620 cells, 24 hours.
Procedure: SW620 and H520 cells (5×10^4/100 μL) were seeded in a 96-well plate prior to treatment. Cells were treated with 10 μM concentration of synthesized compound in quadruplicate for 24 hours in RPMI 1640 supplemented medium and 100 μg/mL penicillin-streptomycin. The cells were then fixed with 100% methanol for 20 minutes at 4° C. The wells were then washed 2 times with PBS, permeabilized in 2% bovine serum albumin (BSA) and 0.2% TritonX-100 in PBS for 30 minutes at room temperature with gentle agitation, and blocked in LI-COR blocking buffer for 30 minutes at room temperature with gentle agitation. The cells were then incubated with the following primary antibodies: anti-E-Cadherin (1:500) and anti-α-Tubulin (1:1000) diluted in blocking buffer (1:1 dilution in PBS) for 2 hours at room temperature with gentle agitation. The cells were washed 4 times in PBS-T for 5 minutes each, and then incubated with the following secondary antibodies conjugated to a fluorescent entity: IRDye 800-conjugated goat anti-rabbit IgG (1:1000) and IRDye-700-conjugated goat anti-mouse IgG (1:2000) in blocking buffer (1:1 dilution in PBS) with gentle agitation for 1 h at room temperature. The cells were washed 4 times in PBS-T for 5 minutes each followed by a single wash with PBS. All liquid was removed from the wells and the plates were visualized and analyzed on the Odyssey IR imaging system (LI-COR Biosciences).
The assay was further optimized in the following manner. The cells were washed 2 times with PBS, fixed in 100% methanol at room temperature for 15 minutes, and again washed 2 times with PBS. The cells were then incubated with the following primary antibodies: anti-E-Cadherin (1:200) and anti-α-Tubulin (1:2000) diluted in ice cold 2% bovine serum albumin (BSA) and 0.2% TritonX-100 in PBS for 1 hour at room temperature with gentle agitation. The cells were washed 2 times in PBS and then incubated with the following secondary antibodies conjugated to a fluorescent entity: Licor 800-conjugated goat anti-rabbit IgG (1:2000) and IRDye-700-conjugated goat anti-mouse IgG (1:2000) in ice cold 2% BSA and 0.2% TritonX-100 in PBS with gentle agitation for 45 minutes at room temperature. The wells were washed 2 times in PBS, dried, and analyzed as previously mentioned.
N-(3-(Arylamino)alkyl)-5-arylisoxazole-3-carboxamide analogs were synthesized as described above. Changes in expression level of E-cadherin in response to 10 μM compound in SW620 cells was determined in the cell-based functional assay as described above, and the data are shown in Table II. The compound number corresponds to the compound numbers used in Table I.
EC50 of inducement of E-cadherin expression in SW620 cells was determined in the cell-based functional assay as described above, and the data are shown in Table III. The compound number corresponds to the compound numbers used in Table I.
With `O=C(NCCCNCc1c[nH]c2ccccc12)c1cc(-c2ccccc2)[nH]n1` [Compound 26, N-(3-(((1H-indol-3-yl)methyl)amino)propyl)-5-phenyl-1H-pyrazole-3-carboxamide] the fold induction at 10 µM was 1.64. In the case of `O=C(NCCCNCc1ccccc1O)c1cc(-c2ccccc2)[nH]n1` [Compound 21, N-(3-((2-hydroxybenzyl)amino)propyl)-5-phenyl-1H-pyrazole-3-carboxamide], the fold induction at 10 µM was 1.14. With `O=C(NCCCNCc1cnoc1)c1cc(-c2ccccc2)[nH]n1` [Compound 35, N-(3-((isoxazol-4-ylmethyl)amino)propyl)-5-phenyl-1H-pyrazole-3-carboxamide] the fold induction at 10 µM was 3.59.
